# Results: patent US10294202B2, “Pyrrolidinones as herbicides” (FMC Corporation, priority 2013, dated 2019)
# Like-named read-outs stand apart in the source and are kept apart here.
# Assays:
# wheat = assay: Test A pre-/postemergence herbicide test; type: in vivo, Triticum aestivum; conditions: for plant injury at 1000 g/ha: Triticum aestivum, 240 h, 1000 g ai/ha, read-out: Plant response rating, Wheat
# In short: (§1)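 Planted in loam–sand blend; treated the same day preemergence by directed soil spray, while separately grown plants at one- to two-leaf stage got postemergence spray. Compared visually with untreated controls after approximately 10 days; 100 means complete control.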
# wheat (winter wheat) = assay: Test C pre-/postemergence herbicide test; type: in vivo, Triticum aestivum
# In short: (§2)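 Test compounds, formulated in a surfactant-containing non-phytotoxic solvent blend, are applied to seeded loam/sand soil (preemergence) and to young plants at the 1- to 4-leaf stage in peat-based medium (postemergence). Plants stay 13 to 15 days under greenhouse conditions, then are scored visually relative to controls, 0 = no effect, 100 = complete control.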
# barnyardgrass = assay: Test A pre-/postemergence herbicide test; type: in vivo, Echinochloa crus-galli; conditions: for pest or weed control at 1000 g/ha: Echinochloa crus-galli, 240 h, 1000 g ai/ha, read-out: Plant response rating, Barnyardgrass
# In short: as §1
# nutsedge, yellow = assay: Test C pre-/postemergence herbicide test; type: in vivo, Cyperus esculentus
# From the text: (§3) Seeds of plant species selected from blackgrass (Alopecurus myosuroides), ryegrass, Italian (Italian ryegrass, Lolium multiflorum), wheat (winter wheat, Triticum aestivum), galium (catchweed bedstraw, Galium aparine), corn (Zea mays), crabgrass, large (large crabgrass, Digitaria sanguinalis), foxtail, giant (giant foxtail, Setaria faberii), johnsongrass (Sorghum halepense), lambsquarters (Chenopodium album), morningglory (Ipomoea coccinea), nutsedge, yellow (yellow nutsedge, Cyperus esculentus), pigweed (Amaranthus retroflexus), ragweed (common ragweed, Ambrosia elatior), soybean (Glycine max), barnyardgrass (Echinochloa crus-galli), oilseed rape (Brassica napus), waterhemp (common waterhemp, Amaranthus rudis), kochia (Kochia scoparia), oat, wild (wild oat, Avena fatua), surinam grass (Brachiaria decumbens), foxtail, green (green foxtail, Setaria viridis), goosegrass (Eleusine indica), bromegrass, downy (downy bromegrass, Bromus tectorum), nightshade (eastern black nightshade, Solanum ptycanthum), cocklebur (common cocklebur, Xanthium strumarium), cupgrass, woolly (woolly cupgrass, Eriochloa villosa), bermudagrass (Cynodon dactylon), sunflower, (common oilseed sunflower, Helianthus annuus), Russian thistle (Salsola kali) and velvetleaf (Abutilon theophrasti) were planted into a blend of loam soil and sand and treated preemergence with test chemicals formulated in a non-phytotoxic solvent mixture which included a surfactant. At the same time, plants selected from these crop and weed species and also barley (winter barley, Hordeum vulgare), […]), chickweed (common chickweed, Stellaria media), deadnettle (henbit deadnettle, Lamium amplexicaule), and canarygrass (littleseed canarygrass, Phalaris minor) were planted in pots containing Redi-Earth® planting medium (Scotts Company, 14111 Scottslawn Road, Marysville, Ohio 43041) comprising spaghnum peat moss, vermiculite, wetting agent and starter nutrients and treated with postemergence applications of test chemicals formulated in the same manner. Plants ranged in height from 2 to 18 cm (1- to 4-leaf stage) for postemergence treatments. Treated plants and controls were maintained in a greenhouse for 13 to 15 days, after which time all species were compared to controls and visually evaluated. Plant response ratings, summarized in Table C, are based on a scale of 0 to 100 where 0 is no effect and 100 is complete control. A dash (-) response means no test result.
# pigweed = assay: Test A pre-/postemergence herbicide test; type: in vivo, Amaranthus retroflexus; conditions: for pest or weed control at 1000 g/ha: Amaranthus retroflexus, 240 h, 1000 g ai/ha, read-out: Plant response rating, Pigweed
# In short: as §1
# blackgrass = assay: Test C pre-/postemergence herbicide test; type: in vivo, Alopecurus myosuroides
# In short: as §2
# galium = assay: Test C pre-/postemergence herbicide test; type: in vivo, Galium aparine
# From the text: as §3
# oilseed rape = assay: Test C pre-/postemergence herbicide test; type: in vivo, Brassica napus
# From the text: as §3
# ryegrass, Italian = assay: Test C pre-/postemergence herbicide test; type: in vivo, Lolium multiflorum
# From the text: as §3
# [1] = Postemergence, 125 g ai/ha, 0 to 100 scale, 0 no effect, 100 complete control
# [2] = Postemergence, 500 g ai/ha, 0 to 100 scale (0 no effect, 100 complete control)
# [3] = Preemergence, 125 g ai/ha, visual rating on 0 to 100 scale (0 no effect, 100 complete control)
# [4] = preemergence, 500 g ai/ha, 0 to 100 scale
# [5] = Postemergence, 31 g ai/ha, scale 0 (no effect) to 100 (complete control)
# [6] = Postemergence, 62 g ai/ha, scale 0 to 100 (0 no effect, 100 complete control)
# [7] = Postemergence, 125 g ai/ha, scale 0 to 100 (0 no effect, 100 complete control)
# [8] = Postemergence, 250 g ai/ha, scale 0 to 100 (0 no effect, 100 complete control)
# [9] = Preemergence, 31 g ai/ha, scale 0 to 100, 0 is no effect and 100 is complete control
# [10] = Preemergence, 62 g ai/ha, scale 0 to 100
# [11] = Preemergence, 125 g ai/ha, scale 0 to 100 (0 no effect, 100 complete control)
# [12] = post-emergence, Postemergence, 0 to 100 scale (0 no effect, 100 complete control)
# [13] = pre-emergence, Preemergence, visual rating on 0 to 100 scale (0 no effect, 100 complete control), approx. 10 days
# [14] = Preemergence, 31 g ai/ha, scale 0 to 100 (0 no effect, 100 complete control)
# [15] = Preemergence, 250 g ai/ha, scale 0 to 100 (0 no effect, 100 complete control)
compound,measurement,setting,value
O=C1NCC(c2ccc(F)c(F)c2)C1C(=O)Nc1cccc(F)c1F (racemic) [Compound 101],"Plant response rating, Wheat",wheat; [1],50
same,"Plant response rating, Wheat",wheat; [2],60
same,Wheat plant response rating,wheat; [3],60
same,"Plant response rating, Wheat",wheat; [4],70
same,"Plant response rating, Wheat",wheat (winter wheat); [5],0
same,"Plant response rating, Wheat",wheat (winter wheat); [6],0
same,"Plant response rating, Wheat",wheat (winter wheat); [7],0
same,"Plant response rating, Wheat",wheat (winter wheat); [8],0
same,Wheat plant response rating,wheat (winter wheat); [9],0
same,"Plant response rating, Wheat",wheat (winter wheat); [10],20
same,"Plant response rating, Wheat",wheat (winter wheat); [11],50
same,"Plant response rating (scale of 0 to 100), Wheat","wheat (winter wheat); Preemergence, 250 g ai/ha",55
same,"Plant response rating, Barnyardgrass",barnyardgrass; [1],80
same,"Plant response rating, Barnyardgrass",barnyardgrass; [2],90
same,Barnyardgrass plant response rating,barnyardgrass; [3],90
same,"Plant response rating, Barnyardgrass","barnyardgrass; preemergence, 500 g ai/ha, 0 to 100 scale (0 no effect, 100 complete control)",90
same,"Plant response rating, Nutsedge, Yellow","nutsedge, yellow; [5]",0
same,"Plant response rating, Nutsedge, Yellow","nutsedge, yellow; [6]",0
same,"Plant response rating, Nutsedge, Yellow","nutsedge, yellow; [7]",0
same,"Plant response rating, Nutsedge, Yellow","nutsedge, yellow; [8]",5
same,"Nutsedge, Yellow plant response rating","nutsedge, yellow; [9]",0
same,"Plant response rating, Nutsedge, Yellow","nutsedge, yellow; [10]",0
same,"Plant response rating, Nutsedge, Yellow","nutsedge, yellow; [11]",0
same,"Plant response rating (scale of 0 to 100), Nutsedge, Yellow","nutsedge, yellow; Preemergence, 250 g ai/ha",0
same,"Plant response rating, Pigweed",pigweed; [1],20
same,"Plant response rating, Pigweed",pigweed; [2],70
same,Pigweed plant response rating,pigweed; [3],10
same,"Plant response rating, Pigweed",pigweed; [4],70
same,"Plant response rating, Blackgrass",blackgrass; [5],0
same,"Plant response rating, Blackgrass",blackgrass; [6],0
same,"Plant response rating, Blackgrass",blackgrass; [7],10
same,"Plant response rating, Blackgrass",blackgrass; [8],5
same,Blackgrass plant response rating,blackgrass; [9],0
same,"Plant response rating, Blackgrass",blackgrass; [10],50
same,"Plant response rating, Blackgrass",blackgrass; [11],70
same,"Plant response rating (scale of 0 to 100), Blackgrass","blackgrass; Preemergence, 250 g ai/ha",90
same,"Plant response rating, Galium",galium; [5],50
same,"Plant response rating, Galium",galium; [6],50
same,"Plant response rating, Galium",galium; [7],30
same,"Plant response rating, Galium",galium; [8],70
same,Galium plant response rating,galium; [9],0
same,"Plant response rating, Galium",galium; [10],40
same,"Plant response rating, Galium",galium; [11],90
same,"Plant response rating (scale of 0 to 100), Galium","galium; Preemergence, 250 g ai/ha",85
same,"Plant response rating, Oilseed Rape",oilseed rape; [5],5
same,"Plant response rating, Oilseed Rape",oilseed rape; [6],10
same,"Plant response rating, Oilseed Rape",oilseed rape; [7],50
same,"Plant response rating, Oilseed Rape",oilseed rape; [8],35
same,Oilseed Rape plant response rating,oilseed rape; [9],0
same,"Plant response rating, Oilseed Rape",oilseed rape; [10],35
same,"Plant response rating, Oilseed Rape",oilseed rape; [11],80
same,"Plant response rating (scale of 0 to 100), Oilseed Rape","oilseed rape; Preemergence, 250 g ai/ha",80
same,"Plant response rating, Ryegrass, Italian","ryegrass, Italian; [5]",0
same,"Plant response rating, Ryegrass, Italian","ryegrass, Italian; [6]",0
same,"Plant response rating, Ryegrass, Italian","ryegrass, Italian; [7]",0
same,"Plant response rating, Ryegrass, Italian","ryegrass, Italian; [8]",0
same,"Ryegrass, Italian plant response rating","ryegrass, Italian; [9]",30
same,"Plant response rating, Ryegrass, Italian","ryegrass, Italian; [10]",15
same,"Plant response rating, Ryegrass, Italian","ryegrass, Italian; [11]",30
same,"Plant response rating (scale of 0 to 100), Ryegrass, Italian","ryegrass, Italian; Preemergence, 250 g ai/ha",50
"O=C1NCC(c2ccc(F)c(F)c2)C1C(=O)Nc1cccc(F)c1F (stereo not shown) [Compound 17, N-(2,3-difluorophenyl)-4-(3,4-difluorophenyl)-2-oxo-3-pyrrolidinecarboxamide]",plant injury at 1000 g/ha,wheat; [12],60%
same,plant injury at 1000 g/ha,wheat; [13],70%
same,"Plant response rating, Wheat",wheat (winter wheat); [5],0
same,"Plant response rating, Wheat",wheat (winter wheat); [6],0
same,"Plant response rating, Wheat",wheat (winter wheat); [7],0
same,"Plant response rating, Wheat",wheat (winter wheat); [8],0
same,"Plant response rating, Wheat",wheat (winter wheat); [10],0
same,"Plant response rating, Wheat",wheat (winter wheat); [11],0
same,pest or weed control at 1000 g/ha,barnyardgrass; [12],90%
same,pest or weed control at 1000 g/ha,barnyardgrass; [13],90%
same,"Plant response rating, Nutsedge, Yellow","nutsedge, yellow; [5]",0
same,"Plant response rating, Nutsedge, Yellow","nutsedge, yellow; [6]",0
same,"Plant response rating, Nutsedge, Yellow","nutsedge, yellow; [7]",0
same,"Plant response rating, Nutsedge, Yellow","nutsedge, yellow; [8]",0
same,"Plant response rating, Nutsedge, Yellow","nutsedge, yellow; [10]",0
same,"Plant response rating, Nutsedge, Yellow","nutsedge, yellow; [11]",0
same,pest or weed control at 1000 g/ha,pigweed; [12],40%
same,pest or weed control at 1000 g/ha,pigweed; [13],50%
same,"Plant response rating, Blackgrass",blackgrass; [5],0
same,"Plant response rating, Blackgrass",blackgrass; [6],0
same,"Plant response rating, Blackgrass",blackgrass; [7],0
same,"Plant response rating, Blackgrass",blackgrass; [8],0
same,"Plant response rating, Blackgrass",blackgrass; [10],50
same,"Plant response rating, Blackgrass",blackgrass; [11],80
same,Blackgrass plant response rating,blackgrass; [14],5
same,"Plant response rating, Blackgrass",blackgrass; [15],95
same,"Plant response rating, Galium",galium; [5],0
same,"Plant response rating, Galium",galium; [6],0
same,"Plant response rating, Galium",galium; [7],0
same,"Plant response rating, Galium",galium; [8],0
same,"Plant response rating, Galium",galium; [10],70
same,"Plant response rating, Galium",galium; [11],70
same,Galium plant response rating,galium; [14],0
same,"Plant response rating, Galium",galium; [15],90
same,"Plant response rating, Ryegrass, Italian","ryegrass, Italian; [5]",0
same,"Plant response rating, Ryegrass, Italian","ryegrass, Italian; [6]",0
same,"Plant response rating, Ryegrass, Italian","ryegrass, Italian; [7]",0
same,"Plant response rating, Ryegrass, Italian","ryegrass, Italian; [8]",5
same,"Plant response rating, Ryegrass, Italian","ryegrass, Italian; [10]",5
same,"Plant response rating, Ryegrass, Italian","ryegrass, Italian; [11]",35
